Results on 2 molecules are retold here after article PMC4914996, “Elimination of a ligand gating site generates a supersensitive olfactory receptor” (Scientific Reports, 2016).

The structures appear in SMILES notation. Residue numbers refer to the chain shown, from its start. Where two headings read alike, the source gives them in different places.

What all share (assay): Fluo-4 Ca2+ influx through cAMP-gated CNG channel in stable HEK293 line
In test [1] the target is T1, TAAR13c (Danio rerio, UniProt Q5QNP2, W296F).
T1 sequence (Q5QNP2 1-341 W296F): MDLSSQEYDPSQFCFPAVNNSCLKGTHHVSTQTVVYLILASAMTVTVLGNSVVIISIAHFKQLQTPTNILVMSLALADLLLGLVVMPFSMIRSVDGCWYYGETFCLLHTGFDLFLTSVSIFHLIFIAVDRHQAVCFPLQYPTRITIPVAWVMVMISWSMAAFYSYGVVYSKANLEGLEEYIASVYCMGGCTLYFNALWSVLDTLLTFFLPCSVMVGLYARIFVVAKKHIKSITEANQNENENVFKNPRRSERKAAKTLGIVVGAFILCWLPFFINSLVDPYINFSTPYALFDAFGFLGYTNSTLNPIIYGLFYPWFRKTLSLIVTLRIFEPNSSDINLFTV
Format: cell-based, Homo sapiens. The text has this:
(§1) Fluo-4 Ca2+ influx through cAMP-gated CNG channel in stable HEK293 line on TAAR13c

In test [2] the target is T2, TAAR13c (Danio rerio, UniProt Q5QNP2, D279E).
T2 sequence (Q5QNP2 1-341 D279E): T1 sequence (Q5QNP2 1-341 W296F) with D279E, F296W
Format: cell-based.
Excerpt: as §1

Test [3] deals with T3, TAAR13c (Danio rerio, UniProt Q5QNP2, D279A).
T3 sequence (Q5QNP2 1-341 D279A): T1 sequence (Q5QNP2 1-341 W296F) with D279A, F296W
Format: cell-based.
Excerpt: as §1

Test [4] addresses T4, TAAR13c (Danio rerio, UniProt Q5QNP2, W296G).
T4 sequence (Q5QNP2 1-341 W296G): T1 sequence (Q5QNP2 1-341 W296F) with F296G
It is filed as cell-based. The note with it: read-out: EC50 (μM, mean±SEM) / cad.
Excerpt: as §1

Test [5] has as its target T5, TAAR13c (Danio rerio, UniProt Q5QNP2, D78E).
T5 sequence (Q5QNP2 1-341 D78E): T1 sequence (Q5QNP2 1-341 W296F) with D78E, F296W
Format: cell-based.
Excerpt: as §1

The target in test [6] is T6, TAAR13c (Danio rerio, UniProt Q5QNP2, W296Y).
T6 sequence (Q5QNP2 1-341 W296Y): T1 sequence (Q5QNP2 1-341 W296F) with F296Y
Format: cell-based.
Excerpt: as §1

Test [7] concerns the target T7, TAAR13c (Danio rerio, UniProt Q5QNP2, D279N).
T7 sequence (Q5QNP2 1-341 D279N): T1 sequence (Q5QNP2 1-341 W296F) with D279N, F296W
Format: cell-based.
Excerpt: as §1

In test [8] the target is T8, TAAR13c (Danio rerio, UniProt Q5QNP2).
T8 sequence (Q5QNP2 1-341): T1 sequence (Q5QNP2 1-341 W296F) with F296W
Format: cell-based.
Excerpt: as §1

The mark [9] stands for this setting: read-out: EC50 (μM, mean±SEM) / cad.
[10] abbreviates: read-out: EC50 (μM, mean±SEM) / put.

Turning to `NCCCCCN` [cadaverine], the EC50 on TAAR13c [1] (setting [9]) came to 42 ± 6 µM; at TAAR13c [2] (setting [9]), 0.72 ± 0.24 µM; at TAAR13c [3] (setting [9]), 2.1 ± 1 µM; at TAAR13c [4] it was 55 ± 48 µM; on TAAR13c [5] (setting [9]) it was 64 ± 28 µM; at TAAR13c [6] (setting [9]), 28 ± 8 µM. The EC50 came out at 1.1 ± 0.8 µM at TAAR13c [7] (setting [9]) and 15.2 ± 2.2 µM at TAAR13c [8] (setting [9]).
`NCCCCN` [putrescine]: the EC50 was > 1000 µM at TAAR13c [1] (setting [10]); 10 ± 4 µM at TAAR13c [2] (setting [10]); 31 ± 13 µM on TAAR13c [3] (setting [10]); > 1000 µM on TAAR13c [5] (setting [10]); > 1000 µM on TAAR13c [6] (setting [10]); 7.3 ± 3.6 µM on TAAR13c [7] (setting [10]). Further, the EC50 on TAAR13c [8] (setting [10]) was > 1000 µM.
